What was measured:
Format in all cases: cell-based
[1] = tested on: human fibroblasts; test: Mitochondrial mass of FK866-treated human fibroblasts (Nonyl Acridine Orange probe, flow cytometry); details: for Effect of treatment against FK866 on mitochondrial mass (in words): fibroblasts treated with FK866; for Mitochondrial mass Increase (%): vs FK866 2.5 nM non treated
Method: Human fibroblasts were cultured at 37° C. in wet atmosphere with 5% CO2, on MEM supplemented with glucose, serum and glutamine. The cells are treated with a chemical agent (FK866) in the presence or absence of the following compounds: Trans-resveratrol and Betaine. Agent FK866 reduces the cell mitochondrial mass, thereby mimicking one of the signs of ageing.
Under these conditions, the ability of the active ingredient to increase the mitochondrial mass is assessed.
After 24 h treatment, the mitochondrial mass is therefore measured using the Nonyl Acridine Orange (NAO, Invitrogen) probe which fluoresces at 533 nm. The cell viability can be measured by DAPI staining. A flow cytometry analysis is conducted with a FACS LSRII and the results analysed by FlowJo software.

[2] = tested on: Col1A1; test: Col1A1 gene expression in cutaneous fibroblasts (quantitative real-time PCR); details: 24 h, resveratrol 4 μM, betaine 5 mM or both; for Relative expression of Col1A1 Mean value: relative to untreated (ΔΔCt); for Relative expression of Col1A1 Increase (%): vs untreated
Method: Cutaneous fibroblasts were cultured for 24 h with resveratrol, betaine or mixtures of the two compounds.
For the gene expression analysis, the total RNAs were extracted from the fibroblast cultures and the expression measured by quantitative real-time PCR. RNA extraction was carried out using an RNeasy Mini Kit (Qiagen). The total RNAs were used for the cDNA synthesis using the iScript cDNA synthesis Kit (Biorad). The PCR reactions were conducted using the mix LightCycler® 480 SYBR Green I Master (Roche). To compare the relative expressions, the Δ ΔCt method was used. The relative expression of the gene of interest is represented by the expression variation compared with the untreated samples.

[3] = tested on: human fibroblasts; test: Intracellular ATP production by cultivated human fibroblasts (chemiluminescence-based assay); details: resveratrol 1 μM, betaine 1 mM or mixture; for ATP (μM per cell) Mean value: 120 min incubation, mean of 4 measurements; for ATP Increase (%): with respect to ATP level in untreated cells, 120 min
Method: Human fibroblasts were cultured at 37° C. in wet atmosphere with 5% CO2, on MEM supplemented with glucose, serum and glutamine. A solution containing trans-resveratrol and/or betaine is added to the culture medium:
The primary fibroblast cultures are incubated for 120 min with resveratrol at a final concentration of 1 μM, betaine at a concentration of 1 mM or a mixture of the two.
The cell viability is measured after incubation by fluorescence. The intracellular ATP concentration is measured by a chemiluminescence-based assay; the mean of 4 measurements is taken.
The intracellular ATP concentrations are expressed in μM of ATP per viable cell and percent of ATP increase is calculated with respect to the ATP level in untreated cells.

[4] = in presence of FK866 2.5 nM, 24 h, betaine 5 mM, resveratrol 25 μM or both
[5] = 24 h, betaine 5 mM, resveratrol 25 μM or both

Row | SMILES | Mitochondrial mass Decrease (%) ([1]; FK866 2.5 nM alone vs basal, 24 h) | Mitochondrial mass (fluorescence units) Mean ([1]; FK866 2.5 nM alone, 24 h treatment) | Effect of FK866 on mitochondrial mass of fibroblasts (in words) ([1]; FK866 alone) | Relative expression of Col1A1 Mean value [2] | Relative expression of Col1A1 Increase (%) [2] | ATP (μM per cell) Mean value [3] | ATP Increase (%) [3] | Effect of treatment against FK866 on mitochondrial mass (in words) [1] | Mitochondrial mass (fluorescence units) Mean [1, 4] | Mitochondrial mass Increase (%) [1, 5]
1 | O=C(/C=C/c1cccnc1)NCCCCC1CCN(C(=O)c2ccccc2)CC1 [FK866, reference compound] | 10% | 1326 fluorescence units | decreases the mitochondrial mass | – | – | – | – | – | – | –
2 | C[N+](C)(C)CC(=O)[O-] [Betaine, trimethylglycine] | – | – | – | 1.28 | 28% | 0.080 μM per cell | 20% | protects against the effects of FK866 | 1574 fluorescence units | 19%
3 | Oc1ccc(C=Cc2cc(O)cc(O)c2)cc1 [Resveratrol, 3,5,4′-trihydroxystilbene] | – | – | – | 1.22 | 22% | 0.086 μM per cell | 28% | protects against the effects of FK866 | 2285 fluorescence units | 72%
